# Target: T1, human histamine H3 receptor (Homo sapiens, UniProt Q9Y5N1, E19D)
# T1 construct: achieved by transfection of full-length human histamine H3 receptor cDNA into a mammalian host cell; expressed in transfected cells; membrane preparation
# Assay: Saturation binding of [3H]-N-alpha-methylhistamine to membranes of pH3R expressing L cells
# Details: recombinant receptor in L cells, FIG. 7, radioligand 0.01 nM-25 nM, room temperature 45 minutes
# Experimental: Binding Assay on Recombinant Human Histamine H3 Receptor L cells that inhibited forskolin-stimulated cAMP accumulation as described above were grown in 150 cm2 tissue culture dishes. Cells were washed with saline solution, scraped with a cell scraper and collected by centrifugation (1000 rpm, 5 min). L cells expressing human histamine H3 receptor bound ^3H—N-alpha-methylhistamine with high affinity (FIG. 7). Cell membranes were prepared by homogenization of the cell pellet in 20 mM TRIS-HCl with a polytron tissue homogenizer for 10 seconds at high speed. Homogenate was centrifuged at 1000 rpm for 5 minutes at 4° C. The supernatant was then collected and centrifuged at 20,000×g for 25 minutes at 4° C. The final pellet is resuspended in 50 mM Tris-HCl. Cell membranes were incubated with ^3H—N-alpha-methylhistamine (0.01 nM–25 nM) in the presence or absence of excess histamine (10000 nM). Incubation was done at room temperature for 45 minutes. Membranes were harvested by rapid filtration over Whatman GF/C filters and washed 4 times with ice cold 50 mM TRIS HCl. Filters were then dried, mixed with scintillant and counted for radioactivity. […]
# T1 sequence (Q9Y5N1 whole entry E19D): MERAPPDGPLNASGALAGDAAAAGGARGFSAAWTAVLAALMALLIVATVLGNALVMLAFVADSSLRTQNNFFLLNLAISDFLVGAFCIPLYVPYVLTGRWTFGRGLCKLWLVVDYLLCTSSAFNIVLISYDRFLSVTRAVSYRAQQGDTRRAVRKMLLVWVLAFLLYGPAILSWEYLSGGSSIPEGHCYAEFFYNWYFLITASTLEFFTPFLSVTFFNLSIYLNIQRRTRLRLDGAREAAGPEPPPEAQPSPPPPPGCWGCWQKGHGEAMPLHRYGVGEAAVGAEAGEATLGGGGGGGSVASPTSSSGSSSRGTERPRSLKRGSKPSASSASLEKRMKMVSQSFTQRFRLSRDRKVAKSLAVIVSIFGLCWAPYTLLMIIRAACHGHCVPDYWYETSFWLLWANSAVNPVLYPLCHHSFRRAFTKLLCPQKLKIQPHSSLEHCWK
smiles,measurement,value
[3H]CNCCc1cnc[nH]1 [^3H—N-alpha-methylhistamine],affinity of binding to L cells expressing human histamine H3 receptor,high affinity
